For test [1], the system named is liver injury induced by concanavalin A. Description: Protection from liver injury induced by concanavalin A. Format: in vivo. As to conditions: ip, plasmatic glutamic-pyruvic transaminase vs treated control group (=100), 8 hours after concanavalin A 0.3 mg/rat i.v.; for response vs control in vivo at 300 mg/kg: 300 mg/kg intraperitoneal; for response vs control in vivo at 500 mg/kg: 500 mg/kg intraperitoneal; for response vs control in vivo at 200 mg/kg: 200 mg/kg intraperitoneal. The source says: Determination of the capability of the compounds of the invention to protect the animals from the liver injury induced by concanavalin A.
The model in vivo used in the present example has been described in Tiegs G, Hentshel J, A Wendel. A T cell-dependent experimental liver injury in mice induced by Concanavalin A. J. Clin. Invest. 1992; 90:196-203.
The animals ([…] of Swiss stock weighing about 20 g) are divided in groups of at least No. 10 animals for group.
The animals receive concanavalin and solvent (treated control group), solvent (polyethylene glycol 400-untreated control group), concanavalin and tested compound dissolved in the solvent (treated groups).
Rats are treated intravenously with concanavalin A (0.3 mg/rat), and after 5 minutes they receive by intraperitoneal injection the tested compounds, at the doses reported in Table 1, dissolved in polyethylenglycol 400.
Eight hours after the concanavalin A injection all the animals were sacrificed and the blood collected and examined. The data, reported in Table 1, are expressed as value of the plasmatic glutamic-pyruvic transaminase percentage of the animals treated with the tested compound with respect to the animals of the treated control group.

Test [2] has as its system Human adenocarcinoma (HT29) cells. In words: Antiproliferative activity in cancerous cells, cellular growth by haemocytometer. The test is classed as cell-based. As to conditions: 96 hours, controls = 100, read-out: Proliferation %. As for the experimental part:
Determination of the Antiproliferative Activity of the Compounds of the Invention in Cancerous Cells.
Human adenocarcinoma (HT29) cells taken from colon affected by cancerous process were transferred into plates with 24 wells containing a cellular culture medium formed by 10% of foetal bovine serum, penicillin (50 U/ml), streptomycin ([…]) and PEG 400 (polyethylenglycol). After 24 hours a part of the plates is inoculated with the tested compounds dissolved in the carrier (PEG 400). 96 hours after the inoculation of the compounds the cellular growth was measured by haemocytometer. The results, reported in Table 2, are expressed as percentage of the cellular proliferation with respect to the controls.

For test [3], the system named is Human adenocarcinoma HT29 cells. Description: 3H-timidine incorporation in human adenocarcinoma HT29 cells. The test is classed as cell-based. As to conditions: 15 hours, cells treated only with Cisplatinum = 100; for timidine incorporation, With 25 μM Cisplatinum: compound 200 μM plus Cisplatinum 25 μM; for timidine incorporation, Without Cisplatinum: compound 200 μM. As for the experimental part:
Determination In Vitro of the Effect of the Compounds of the Invention on the Timidine Incorporation in Human Adeno-Carcinoma HT29 Cells. Human adenocarcinoma cells are sown on plates having 24 wells (2.5×10^5 cells/plate) with a standard culture medium. After 24 hours some plates are inoculated with the tested compounds dissolved in dimethylsulphoxide at a 200 μM concentration and others are treated with the tested compounds dissolved in dimethylsulphoxide at a 200 μM concentration in the presence of a solution of cisplatinum 25 μM. After 15 hours of incubation the plates are put into contact with a solution of ^3H-timidine […] (RAS. 3,000 Ci/mol). The cell monolayer of each plate is first washed twice with a cold saline buffer, then treated with TCA (trichloroacetic acid) at 5% for 10 minutes and then washed three times with absolute alcohol. The cells of each well are dissolved in 500 μl of NaOH 0.1N and the incorporated radioactivity is determined by scintallation counting. The obtained results are reported in Table 4 and expressed as percentage of ^3H-Timidine incorporated in the cells treated with the tested compounds and in the presence of Cisplatinum, considering equal to 100 the amount of ^3H-Timidine incorporated in the cells treated only with Cisplatinum.

In test [4] the test system is PNT1A human epithelial cells of prostate cancer. In words: Antiproliferative activity, MTT, prostate cancer line PNT1A. The test is classed as cell-based. As to conditions: 96 h, 4 days, vs DMSO 1%, read-out: Inhibition of the proliferative activity (%); for inhibition at 100 µM: 10^-4 M; for inhibition at 10 µM: 10^-5 M; for inhibition at 1 µM: 10^-6 M. As for the experimental part: (§1) Determination of the Antiproliferative Activity of the Compounds of the Invention in Cancerous Epithelial Cells of Bladder and Prostate.
(§2) The experiment was carried out by using three human epithelial cellular lines of the prostate cancer (PNT1A; LLNCaP; PC3) and three human epithelial cellular lines of the bladder cancer (T24; 647V; 1207), the various types of cellular lines are identified on the basis of the characteristics, in particular of the aggressiveness, of the cancerous process.
(§3) The cancerous cells are sown, with an initial concentration of 20,000 cells/cm^2, in plates having 96 wells with a cellular culture medium RPMI added with foetal bovine serum 5% and L-Glutamine 1%. Solutions in dimethylsulphoxide of the tested compounds at three different concentrations (10^−6 M; 10^−5M; 10^−4M) or the carrier (DMSO 1%) are added to the culture medium. 4 days after the treatment the cellular growth was measured by the method with MTT (3-[4,5-dimethylthiazol-2-yl]-2,5-diphenyltetrazolium bromide) de-scribed by Turner in: Turner T., Chen P., Goodly L. J., Wells A. Clin. Exp. Metastasis 1996, 14, 409-418. The results, reported in Table 3, are expressed as inhibition percentage of the cellular proliferation determined by measuring the cellular proliferation in the cellular cultures treated with the tested compounds with respect to that measured in cellular cultures treated with dimethylsulphoxide 1%.

Test [5] deals with LNCaP human epithelial cells of prostate cancer. Description: Antiproliferative activity, MTT, prostate cancer line LNCaP. As to conditions: 96 h, 4 days, vs DMSO 1%, read-out: Inhibition of the proliferative activity (%); for inhibition at 100 µM: 10^-4 M; for inhibition at 10 µM: 10^-5 M; for inhibition at 1 µM: 10^-6 M. The test is classed as cell-based. As for the experimental part: as §1, §2, §3

Test [6] concerns PC3 human epithelial cells of prostate cancer. Description: Antiproliferative activity, MTT, prostate cancer line PC3. Format: cell-based. As to conditions: Epithelial cell, 96 h, 4 days, vs DMSO 1%, read-out: Inhibition of the proliferative activity (%); for inhibition at 100 µM: 10^-4 M; for inhibition at 10 µM: 10^-5 M; for inhibition at 1 µM: 10^-6 M. As for the experimental part: as §1, §2, §3

Test [7] deals with T24 human epithelial cells of bladder cancer. Description: Antiproliferative activity, MTT, bladder cancer line T24. The test is classed as cell-based. As to conditions: Epithelial cell, 96 h, 4 days, vs DMSO 1%, read-out: Inhibition of the proliferative activity (%); for inhibition at 100 µM: 10^-4 M; for inhibition at 10 µM: 10^-5 M; for inhibition at 1 µM: 10^-6 M. As for the experimental part: as §1, §2, §3

For test [8], the system named is 647V human epithelial cells of bladder cancer. Description: Antiproliferative activity, MTT, bladder cancer line 647V. The test is classed as cell-based. As to conditions: 96 h, 4 days, vs DMSO 1%, read-out: Inhibition of the proliferative activity (%); for inhibition at 100 µM: 10^-4 M; for inhibition at 10 µM: 10^-5 M; for inhibition at 1 µM: 10^-6 M. As for the experimental part:
as §1, §2, §3

Test [9] concerns 1207 human epithelial cells of bladder cancer. In words: Antiproliferative activity, MTT, bladder cancer line 1207. The test is classed as cell-based. As to conditions: Epithelial cell, 96 h, 4 days, vs DMSO 1%, read-out: Inhibition of the proliferative activity (%); for inhibition at 100 µM: 10^-4 M; for inhibition at 10 µM: 10^-5 M; for inhibition at 1 µM: 10^-6 M. As for the experimental part:
as §1, §2, §3

Test [10] has as its system human epithelial cellular lines of the prostate cancer and of the bladder cancer. In words: Antiproliferative activity in prostate and bladder cancer lines, summary in words. As to conditions: cellular lines LNCaP and PC3, and 647V, 1207. Format: cell-based. On the procedure:
as §2, §3
The compound of Ex. 7, reported in the Table with the simplified denomination of nitrooxybutyl ester of the aspirin der. with ferulic ac. is active, at 10^−5 concentrations, in prostate tumours as shown by the results obtained on the cellular lines LNCaP and PC3.

Structures can show the parent of a compound that is named as a salt.

We go through 15 compounds from patent publication US7629368B2, “Nitroderivatives as drugs for diseases having an inflammatory basis” (Nicox S.A., priority 2000, dated 2009).

Turning to `CC(=O)Oc1ccccc1C(=O)O` [Aspirin, Acetylsalicylic Acid, reference compound], in [1], the response vs control in vivo at 300 mg/kg came out at 120%. Besides, the activity at 500 µM in test [2] (HT-29, 500 μM) is 100%. In [3], the “timidine incorporation, With 25 μM Cisplatinum” value is 100% and the “timidine incorporation, Without Cisplatinum” value is listed as 438%.
As for `CC(=O)Oc1ccccc1C(=O)OCc1cccc(CO[N+](=O)[O-])n1` [Ex. 1, 2-acetyloxybenzoic acid 6-(nitrooxymethyl)-2-methylpyridinyl ester hydrochloride], the activity at 10 µM in test [2] (HT-29, 10 μM) came to 0%.
As to `CC(=O)Oc1ccccc1C(=O)OCc1ccc(CO[N+](=O)[O-])cn1` [Ex. 3, 2-acetyloxybenzoic acid 5-(nitrooxymethyl)-2-methylpyridinyl ester hydrochloride], in [1], the response vs control in vivo at 300 mg/kg came to 5%.
On to `CC(=O)Oc1ccccc1C(=O)OCc1ncccc1CO[N+](=O)[O-]` [Ex. 4, 2-acetyloxybenzoic acid 3-(nitrooxymethyl)-2-methylpyridinyl ester hydrochloride], for which the response vs control in vivo at 300 mg/kg in test [1] was found to be 7%.
On to `CC(=O)Oc1ccccc1C(=O)Oc1cccc(CO[N+](=O)[O-])c1` [Ex. 5, 3-nitrooxymethylphenyl ester of the 2-acetoxybenzoic acid], for which, in test [2] (HT-29, 300 μM), the activity at 300 µM amounted to 40%. In [3], the “timidine incorporation, With 25 μM Cisplatinum” value turned out to be 46% and the “timidine incorporation, Without Cisplatinum” value came out at 192%.
On to `COc1cc(/C=C/C(=O)Oc2ccc(NC(C)=O)cc2)ccc1OC(=O)CCCO[N+](=O)[O-]` [Ex. 8, trans-3-[4-(4′-nitrooxybutyryloxy)-3-methoxyphenyl]-2-propenoic acid 4-(acetylamino)phenyl ester], for which the response vs control in vivo at 500 mg/kg in [1] is 8%.
Consider `CC(=O)Nc1ccc(OC(=O)CCCO[N+](=O)[O-])cc1` [Ex. 9, 4-nitrooxybutanoic acid 4′-acetylamino phenyl ester], for which the response vs control in vivo at 500 mg/kg in [1] turned out to be 10%.
Consider `O=C(Oc1cccc(CO[N+](=O)[O-])c1)c1ccccc1O` [Ex. 15, 2-hydroxybenzoic Acid 3-(nitrooxymethyl)phenyl ester], for which, in [3], the “timidine incorporation, With 25 μM Cisplatinum” value amounted to 50% and the “timidine incorporation, Without Cisplatinum” value was 246%.
Broadly, the inhibition is the share of the control response that was lost under treatment. Consider `COc1cc(/C=C/C(=O)OCCCCO[N+](=O)[O-])ccc1OC(=O)C(C)c1ccc(CC(C)C)cc1` (stereo not drawn) [Ex. 16, Trans-3-[4-[α-methyl-[4-(-2-methylpropyl)benzene]acetyloxy]-3-methoxyphenyl]-2-propenoyl 4-(nitrooxy) butyl ester], for which the inhibition at 100 µM worked out at 20% in test [4]; 60% in [5]; 47% in test [6]; 22% in [7]; 45% in [8]; 43% in test [9]. The inhibition at 10 µM turned out to be 4% in test [4]; 33% in test [5]; 9% in test [6]; 0% in test [7]; 0% in test [8]; 0% in test [9]. Also, the inhibition at 1 µM came out at 0% in [4]; 8% in [5]; 4% in [6]; 0% in [7]; 0% in test [8]; 2% in test [9]. The “activity in very aggressive prostate and bladder tumours (in words)” value in test [10] was “active”.
Consider `COc1cc(/C=C/C(=O)OCCCCO[N+](=O)[O-])ccc1OC(=O)C(C)c1ccc(-c2ccccc2)c(F)c1` (stereo not drawn) [Ex. 17, trans-3-[4-[2-fluoro-α-methyl-(1,1′-biphenyl)-4-acetyloxy]-3-methoxyphenyl]-2-propenoyl 4-(nitrooxy) butyl ester], for which the inhibition at 100 µM in test [4] was found to be 13%; in test [5] it was 58%; in test [6] it was 53%; in test [7], 23%; in test [8], 41%; in test [9], 34%. The inhibition at 10 µM in [4] was determined as 2%; in [5], 26%; in [6], 20%; in [7], 0%; in test [8], 13%; in [9] it was 0%. The inhibition at 1 µM came to 0% in test [4]; 1% in test [5]; 8% in test [6]; 0% in [7]; 0% in [8]; 0% in [9]. Also, the “activity in very aggressive prostate and bladder tumours (in words)” value in test [10] is on record as “active”.
`CC1=C(CC(=O)OCc2cccc(CO[N+](=O)[O-])n2)c2cc(F)ccc2/C1=C\c1ccc([S+](C)[O-])cc1` (centres unmarked) [Ex. 19] showed a response vs control in vivo at 200 mg/kg in [1] of 23%.
Regarding `CC(=O)Oc1ccccc1C(=O)Oc1ccccc1CO[N+](=O)[O-]` [Ex. 20, 2-acetyloxybenzoic acid 2-(nitrooxymethyl)phenyl ester], the activity at 20 µM in test [2] (HT-29, 20 μM) stood at 50%.
In test [1], `CC(=O)Nc1ccc(O)cc1` [Paracetamol, reference compound] gave a response vs control in vivo at 500 mg/kg of 160%.
`O=C(O)c1ccccc1O` [Salicylic acid, Salicylic Acid, reference compound]: in test [3], the “timidine incorporation, With 25 μM Cisplatinum” value was found to be 100% and the “timidine incorporation, Without Cisplatinum” value is reported as 438%.
In the case of `CC1=C(CC(=O)O)c2cc(F)ccc2/C1=C\c1ccc([S+](C)[O-])cc1` (centres unmarked) [Sulindac, reference compound], in test [1], the response vs control in vivo at 200 mg/kg stood at 115%. In addition, the activity at 50 µM in [2] (HT-29, 50 μM) came out at 100%.
